{"source": "patent US20250032623A1", "about": "“HETEROBIFUNCTIONAL COMPOUNDS AND THEIR USE IN TREATING DISEASE” (HALDA THERAPEUTICS OPCO, INC., priority 2021, published 2025)", "key": {"[1]": {"target": "T1, EGFR T790M, L858R (amino acids 669-1011 Accession Number NP_005219.2) (Homo sapiens, UniProt P00533, L858R/T790M)", "T1 construct": "purchased Eurofins Discovery; host or cells: mammalian cells (HEK-293)", "T1 sequence (P00533 669-1011 T790M/L858R)": "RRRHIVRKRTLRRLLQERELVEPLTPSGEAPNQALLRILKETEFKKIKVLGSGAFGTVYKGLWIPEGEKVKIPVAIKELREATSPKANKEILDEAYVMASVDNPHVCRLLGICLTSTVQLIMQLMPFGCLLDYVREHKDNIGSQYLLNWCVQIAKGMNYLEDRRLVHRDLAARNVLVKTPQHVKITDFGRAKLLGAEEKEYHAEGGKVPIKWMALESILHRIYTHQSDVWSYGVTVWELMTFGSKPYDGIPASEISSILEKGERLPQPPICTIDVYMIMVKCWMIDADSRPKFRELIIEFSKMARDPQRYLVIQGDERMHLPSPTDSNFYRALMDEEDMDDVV", "assay": "KdELECT binding assay (Eurofins Discovery), EGFR T790M, L858R", "settings": "read-out: EGFR DM Kd", "protocol": "(§1) Exemplary compounds were tested for ability to bind to EGFR WT (amino acids 669-1011, Accession Number NP_005219.2) or EGFR T790M, L858R (amino acids 669-1011 Accession Number NP_005219.2) expressed from bacteria or mammalian cells, respectively. Compounds were tested using the KdELECT assay at Eurofins Discovery.\n(§2) Kinase-tagged T7 phage strains were prepared in an E. coli host derived from the BL21 strain. E. coli were grown to log-phase and infected with T7 phage and incubated with shaking at 32° C. until lysis. The lysates were centrifuged and filtered to remove cell debris. The remaining kinases were produced in HEK-293 cells and subsequently tagged with DNA for qPCR detection. Streptavidin-coated magnetic beads were treated with biotinylated small molecule ligands for 30 minutes at room temperature to generate affinity resins for kinase assays. The liganded beads were blocked with excess biotin and washed with blocking buffer (SeaBlock (Pierce), 1% BSA, 0.05% Tween 20, 1 mM DTT) to remove unbound ligand and to reduce non-specific binding. Binding reactions were assembled by combining kinases, liganded affinity beads, and test compounds in 1× binding buffer (20% SeaBlock, 0.17×PBS, 0.05% Tween 20, 6 mM DTT). Test compounds were prepared as 111× stocks in 100% DMSO. Kd values were determined using an 11-point 3-fold compound dilution series with three DMSO control points. All compounds for Kd measurements are distributed by acoustic transfer (non-contact dispensing) in 100% DMSO. The compounds were then diluted directly into the assays such that the final concentration of DMSO was 0.9%. All reactions performed in polypropylene 384-well plate. Each was a final volume of 0.02 mL. The assay plates were incubated at room temperature with shaking for 1 hour and the affinity beads were washed with wash buffer (1× PBS, 0.05% Tween 20). The beads were then re-suspended in elution buffer (1× PBS, 0.05% Tween 20, 0.5 μM nonbiotinylated affinity ligand) and incubated at room temperature with shaking for 30 minutes. The kinase concentration in the eluates was measured by qPCR."}, "[2]": {"target": "T2, EGFR WT (amino acids 669-1011, Accession Number NP_005219.2) (Homo sapiens, UniProt P00533)", "T2 construct": "purchased Eurofins Discovery; host or cells: bacteria (E. coli, BL21-derived, T7 phage)", "T2 sequence (P00533 669-1011)": "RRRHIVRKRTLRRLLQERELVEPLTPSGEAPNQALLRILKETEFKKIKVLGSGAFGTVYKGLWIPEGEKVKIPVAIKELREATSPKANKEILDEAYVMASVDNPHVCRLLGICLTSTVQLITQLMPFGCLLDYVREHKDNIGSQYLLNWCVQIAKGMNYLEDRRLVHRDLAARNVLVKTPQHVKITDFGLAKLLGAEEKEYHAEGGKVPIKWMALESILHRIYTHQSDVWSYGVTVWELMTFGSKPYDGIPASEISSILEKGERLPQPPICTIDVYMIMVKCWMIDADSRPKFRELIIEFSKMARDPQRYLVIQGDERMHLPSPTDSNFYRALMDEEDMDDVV", "assay": "KdELECT binding assay (Eurofins Discovery), EGFR WT", "protocol": "as §1, §2"}, "EGFR": {"target": "T3, EGFR (Homo sapiens, UniProt P00533)", "T3 construct": "purchased", "T3 sequence (P00533 25-1210)": "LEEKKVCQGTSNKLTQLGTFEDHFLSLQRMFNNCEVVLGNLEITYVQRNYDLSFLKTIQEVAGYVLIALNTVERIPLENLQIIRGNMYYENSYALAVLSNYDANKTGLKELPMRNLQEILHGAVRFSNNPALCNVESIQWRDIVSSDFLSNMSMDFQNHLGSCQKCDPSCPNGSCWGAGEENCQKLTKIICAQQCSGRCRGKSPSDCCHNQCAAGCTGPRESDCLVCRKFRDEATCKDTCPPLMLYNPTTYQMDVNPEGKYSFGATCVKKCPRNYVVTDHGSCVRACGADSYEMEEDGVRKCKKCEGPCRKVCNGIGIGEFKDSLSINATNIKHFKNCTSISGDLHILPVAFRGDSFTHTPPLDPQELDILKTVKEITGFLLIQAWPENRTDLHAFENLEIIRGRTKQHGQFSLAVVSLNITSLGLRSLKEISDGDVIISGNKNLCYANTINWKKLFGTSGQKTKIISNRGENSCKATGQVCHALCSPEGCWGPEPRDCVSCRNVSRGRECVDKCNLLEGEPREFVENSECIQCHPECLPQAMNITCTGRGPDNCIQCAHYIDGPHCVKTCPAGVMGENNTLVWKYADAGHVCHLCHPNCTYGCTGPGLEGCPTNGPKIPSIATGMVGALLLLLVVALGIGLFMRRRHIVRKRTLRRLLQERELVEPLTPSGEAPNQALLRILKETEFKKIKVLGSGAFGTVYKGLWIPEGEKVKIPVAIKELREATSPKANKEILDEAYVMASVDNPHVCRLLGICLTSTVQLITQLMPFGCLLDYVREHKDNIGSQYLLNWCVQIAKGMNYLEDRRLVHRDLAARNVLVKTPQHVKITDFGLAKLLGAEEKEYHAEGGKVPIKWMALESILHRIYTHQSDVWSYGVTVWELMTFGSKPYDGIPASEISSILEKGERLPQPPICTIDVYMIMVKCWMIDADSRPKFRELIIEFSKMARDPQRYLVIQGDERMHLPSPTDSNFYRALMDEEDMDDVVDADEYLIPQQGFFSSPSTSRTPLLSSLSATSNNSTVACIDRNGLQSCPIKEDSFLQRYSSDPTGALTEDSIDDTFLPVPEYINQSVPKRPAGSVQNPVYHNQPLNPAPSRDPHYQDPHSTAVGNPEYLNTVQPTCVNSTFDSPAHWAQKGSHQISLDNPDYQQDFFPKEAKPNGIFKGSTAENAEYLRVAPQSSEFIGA", "assay": "KdELECT binding assay, EGFR", "protocol": "Exemplary compounds were tested for ability to bind to EGFR.\nas §2, with “Compounds were tested using a KdELECT assay. Kinase-tagged” for “Kinase-tagged”"}, "HEK293 cells": {"tested_on": "HEK293 cells", "assay": "Cellular growth inhibition assay (CellTiter-Glo), HEK293 cells", "format": "cell-based", "settings": "three days compound treatment, CellTiter-Glo 2.0, read-out: CTG HEK293 GI50", "protocol": "(§3) Exemplary compounds were tested for ability to inhibit the proliferation of HEK293 cells or HeLa cells.\n(§4) HEK293 and HeLa cells were cultured in DMEM medium supplemented with 10% fetal bovine serum and 1% Penn/Strep. Cells were seeded in white 384-well plates at 500 cells/well in […] complete medium. Following seeding, plates were spun at 300×g for three minutes and cultured at 37° C. with 5% CO2 in a humidified tissue culture incubator.\n(§5) After 24 hours, compounds were titrated in 100% DMSO and diluted in complete cell culture medium. […] of compound/media mixture was added to cells to bring total volume in well to […]. DMSO alone was used as a negative control. P lates were then spun at 300×g for three minutes and stored at 37° C. with 5% CO2 for three days.\n(§6) On Day 0 and Day 3 of compound treatment, cell viability was quantified with CellTiter-Glo 2.0 reagent (Promega). After equilibrating microplates at room temperature for 30 minutes, 25 μL CellTiter-Glo 2.0 reagent was dispensed into each well to bring total volume to […]. Plates were mixed on shaker for 2 minutes at 500 rpm, followed by a 10-minute incubation at room temperature. Following a quick spin, luminescence readings were measured with an EnVision Plate Reader. Data was normalized to DMSO treated Day 0 and Day 3 readings. A four-parameter non-linear regression curve fit was applied to dose-response data in GraphPad Prism data analysis software to determine the half maximal growth inhibitory concentration (GI50) for each compound."}, "HeLa cells": {"tested_on": "HeLa cells", "assay": "Cellular growth inhibition assay (CellTiter-Glo), HeLa cells", "format": "cell-based", "settings": "three days compound treatment, CellTiter-Glo 2.0, read-out: CTG HELA GI50", "protocol": "as §3, §4, §5, §6"}}, "note": "Like-named read-outs stand apart in the source and are kept apart here.", "data": [{"smiles": "C=CC(=O)Nc1cc(Nc2nccc(-c3cn(C)c4ccccc34)n2)c(OC)cc1N(C)CCN(C)CCOCCOCCOCCOCCNS(=O)(=O)c1ccc(Nc2ncc(Br)c(Nc3cccc(F)c3C(N)=O)n2)cc1", "note": "[Compound I-32, 2-[[5-bromo-2-[4-[2-[2-[2-[2-[2-[2-[5-methoxy-N-methyl-4-[[4-(1-methylindol-3-yl)pyrimidin-2-yl]amino]-2-(prop-2-enoylamino)anilino]ethyl-methyl-amino]ethoxy]-ethoxy]ethoxy]ethoxy]ethylsulfamoyl]anilino]pyrimidin-4-yl]amino]-6-fluoro-benzamide]", "values": [{"measurement": "Kd", "setting": "[1]", "result": "< 50", "unit": "nM"}, {"measurement": "Kd", "setting": "[2]", "result": "50 to 500", "unit": "nM"}]}, {"smiles": "C=CC(=O)N[C@@H]1CN(c2nc(Nc3cn(CCOCCOCCOCCOCCON(C)C(=O)N4N=C(c5cc(F)ccc5F)SC4(CCCN)c4ccccc4)nc3OC)c3ncn(C)c3n2)C[C@H]1F", "note": "(stereo partly shown) [Compound I-66]", "values": [{"measurement": "Kd", "setting": "EGFR", "result": "< 50", "unit": "nM"}]}, {"smiles": "C=CC(=O)Nc1cc(Nc2nccc(-c3cn(C)c4ccccc34)n2)c(OC)cc1N(C)CCN(C)CCOCCOCCOCCOCCNC(=O)c1ccc(Nc2ncc3c(n2)N(C2CCCC2)[C@H](CC)C(=O)N3C)c(OC)c1", "note": "[Compound I-112, 4-[[(7R)-8-cyclopentyl-7-ethyl-5-methyl-6-oxo-7H-pteridin-2-yl]amino]-3-methoxy-N-[2-[2-[2-1[2-[2-1[2-1[5-methoxy-N-methyl-4-1[[4-(1-methylindol-3-yl)pyrimidin-2-yl]amino]-2-(prop-2-enoylamino)anilino]ethyl-methyl-amino]ethoxy]ethoxy]ethoxy]ethoxy]ethyl]benzamide]", "values": [{"measurement": "Kd", "setting": "EGFR", "result": "500 to 2500", "unit": "nM"}, {"measurement": "Kd", "setting": "[2]", "result": "500 to 2500", "unit": "nM"}]}, {"smiles": "C=CC(=O)Nc1cc(Nc2nccc(-c3cn(C)c4ccccc34)n2)c(OC)cc1N(C)CCN(C)CCOCCOCCOCCOCCOCCOCCNC(=O)c1ccc(Nc2ncc3c(n2)N(C2CCCC2)[C@H](CC)C(=O)N3C)c(OC)c1", "note": "[Compound I-113, (R)—N-(2-(2-acrylamido-5-methoxy-4-((4-(1-methyl-1H-indol-3-yl)pyrimidin-2-yl)amino)phenyl)-5-methyl-8,11,14,17,20,23-hexaoxa-2,5-diazapentacosan-25-yl)-4-((8-cyclopentyl-7-ethyl-5-methyl-6-oxo-5,6,7,8-tetrahydropteridin-2-yl)amino)-3-methoxybenzamide]", "values": [{"measurement": "GI50", "setting": "HEK293 cells; Homo sapiens, 72 h", "result": "1500 to 5000", "unit": "nM"}, {"measurement": "Kd", "setting": "EGFR", "result": "500 to 2500", "unit": "nM"}, {"measurement": "Kd", "setting": "[2]", "result": "500 to 2500", "unit": "nM"}]}, {"smiles": "C=CC(=O)Nc1cc(Nc2nccc(-c3cn(C)c4ccccc34)n2)c(OC)cc1N(C)CCN(C)CCCCNS(=O)(=O)c1ccc(Nc2ncc(Br)c(Nc3cccc(F)c3C(N)=O)n2)cc1", "note": "[Compound I-29, 2-[[5-bromo-2-[4-[4-[2-[5-methoxy-N-methyl-4-[[4-(1-methylindol-3-yl)pyrimidin-2-yl]amino]-2-(prop-2-enoylamino)anilino]ethyl-methyl-amino]butylsulfamoyl]anilino]pyrimidin-4-yl]amino]-6-fluoro-benzamide]", "values": [{"measurement": "Kd", "setting": "[1]", "result": "< 50", "unit": "nM"}, {"measurement": "Kd", "setting": "[2]", "result": "50 to 500", "unit": "nM"}]}, {"smiles": "C=CC(=O)N[C@@H]1CN(c2nc(Nc3cn(CCCN4CCN(CCCOc5ccc(CNc6cc(N7CCCC[C@H]7CCO)nc7c(CC)cnn67)cn5)CC4)nc3OC)c3ncn(C)c3n2)C[C@H]1F", "note": "[Compound I-147, N-[(3R,4R)-1-[6-[[1-[3-[4-[3-[[5-[[[3-ethyl-5-[(2S)-2-(2-hydroxyethyl)-1-piperidyl]pyrazolo[1,5-a]pyrimidin-7-yl]amino]methyl]-2-pyridyl]oxy]propyl]piperazin-1-yl]propyl]-3-methoxy-pyrazol-4-yl]amino]-9-methyl-purin-2-yl]-4-fluoro-pyrrolidin-3-yl]prop-2-enamide]", "values": [{"measurement": "GI50", "setting": "HEK293 cells; Homo sapiens, 72 h", "result": "< 500", "unit": "nM"}, {"measurement": "GI50", "setting": "HeLa cells; Homo sapiens, 72 h", "result": "500 to 1500", "unit": "nM"}]}, {"smiles": "C=CC(=O)N[C@@H]1CN(c2nc(Nc3cn(CCCCCCCCNS(=O)(=O)c4ccc(Nc5ncc(Br)c(Nc6cccc(F)c6C(N)=O)n5)cc4)nc3OC)c3ncn(C)c3n2)C[C@H]1F", "note": "[Compound I-148, 2-[[5-bromo-2-[4-[8-[4-[[2-[(3R,4R)-3-fluoro-4-(prop-2-enoylamino)pyrrolidin-1-yl]-9-methyl-purin-6-yl]amino]-3-methoxy-pyrazol-1-yl]octylsulfamoyl]anilino]pyrimidin-4-yl]amino]-6-fluoro-benzamide]", "values": [{"measurement": "GI50", "setting": "HEK293 cells; Homo sapiens, 72 h", "result": "< 500", "unit": "nM"}, {"measurement": "GI50", "setting": "HeLa cells; Homo sapiens, 72 h", "result": "< 500", "unit": "nM"}]}, {"smiles": "CCc1cnn2c(NCc3ccc(OCCOCCOCCOCCOCCN(C)C/C=C/C(=O)N4CCN(c5nc(=O)n(-c6c(C)ccnc6C(C)C)c6nc(-c7c(O)cccc7F)c(F)cc56)[C@@H](C)C4)nc3)cc(N3CCCC[C@H]3CCO)nc12", "note": "[Compound I-76]", "values": [{"measurement": "GI50", "setting": "HEK293 cells; Homo sapiens, 72 h", "result": "> 5000", "unit": "nM"}, {"measurement": "GI50", "setting": "HeLa cells; Homo sapiens, 72 h", "result": "> 5000", "unit": "nM"}]}, {"smiles": "CC[C@@H]1C(=O)N(C)c2cnc(Nc3ccc(C(=O)NCCCN4CCN(CCCN(C)C/C=C/C(=O)Nc5cc(Nc6nccc(-c7cn(C)c8ccccc78)n6)c(OC)cc5N(C)CCN(C)C)CC4)cc3OC)nc2N1C1CCCC1", "note": "[Compound I-151, 4-[[(7R)-8-cyclopentyl-7-ethyl-5-methyl-6-oxo-7H-pteridin-2-yl]amino]-N-[3-[4-[3-[[(E)-4-[2-[2-(dimethylamino)ethyl-methyl-amino]-4-methoxy-5-[[4-(1-methylindol-3-yl)pyrimidin-2-yl]amino]anilino]-4-oxo-but-2-enyl]-methyl-amino]propyl]piperazin-1-yl]propyl]-3-methoxy-benzamide]", "values": [{"measurement": "GI50", "setting": "HEK293 cells; Homo sapiens, 72 h", "result": "500 to 1500", "unit": "nM"}, {"measurement": "GI50", "setting": "HeLa cells; Homo sapiens, 72 h", "result": "< 500", "unit": "nM"}]}, {"smiles": "C=CC(=O)Nc1cc(Nc2nccc(-c3cn(C)c4ccccc34)n2)c(OC)cc1N(C)CCN(C)CCOCCOCCOCCOCCOCCOCCON(C)C(=O)N1N=C(c2cc(F)ccc2F)SC1(CCCN)c1ccccc1", "note": "(stereo not shown) [Compound I-68]", "values": [{"measurement": "Kd", "setting": "[1]", "result": "< 50", "unit": "nM"}, {"measurement": "Kd", "setting": "[2]", "result": "500 to 2500", "unit": "nM"}]}, {"smiles": "Cc1c(CC(=O)N(C)C)ccc(NC(=O)c2nn([C@@H]3CCCN(C(=O)/C=C/CN(C)CCOCCOCC(=O)NCCCCn4nc(-c5ccc6oc(N)nc6c5)c5c(N)ncnc54)C3)c3ncnc(N)c23)c1C", "note": "[Compound I-83, 4-amino-1-[(3R)-1-[(E)-4-[2-1[2-[2-[4-[4-amino-3-(2-amino-1,3-benzoxazol-5-yl)pyrazolo[3,4-d]pyrimidin-1-yl]butylamino]-2-oxo-ethoxy]ethoxy]ethyl-methyl-amino]but-2-enoyl]-3-piperidyl]-N-[4-[2-(dimethylamino)-2-oxo-ethyl]-2,3-dimethyl-phenyl]pyrazolo[3,4-d]pyrimidine-3-carboxamide]", "values": [{"measurement": "GI50", "setting": "HEK293 cells", "result": "1500 to 5000", "unit": "nM"}, {"measurement": "GI50", "setting": "HeLa cells", "result": "> 5000", "unit": "nM"}]}]}
